Test results as given in PubChem BioAssay AID2060604 (Molecular Pharmacology Branch, DTP, NCI, 2025).
Values joined by “and” are separate entries in the source; they are usually repeats but may differ in a detail not shown here. Equal values may be shown once.

Test system: 379773-124-R-J2-PDC complex spheroids, viability % test/control
Test: Anticancer human tumor 379773-124-R-J2-PDC patient-derived endometrial carcinoma cell line growth inhibition [CLK]
Conditions: for viability, T/C: stronger effect = lower value
Procedure, shortened: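 Multi-cell-type spheroids combined patient-derived tumor cells with HUVEC endothelial cells and human mesenchymal stem cells. Paired agents were dosed in half-log steps down from about clinical Cmax, or from 10 microM where Cmax was unknown.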
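Also: compound exposure lasted seven days before the viability readout.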
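For viability, T/C in this document: 100% = DMSO vehicle control wells.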

`CC(=O)O[C@H]1C(=O)[C@@]2(C)[C@H]([C@H](OC(=O)c3ccccc3)[C@]3(O)C[C@H](OC(=O)[C@H](O)[C@@H](NC(=O)c4ccccc4)c4ccccc4)C(C)=C1C3(C)C)[C@]1(OC(C)=O)CO[C@@H]1C[C@@H]2O` was tested, and the viability, T/C (compound 0.0316 µM) was 6.12% and 4.78%, the viability, T/C (compound 0.1 µM) was 5.31% and 6.44% and the viability, T/C (compound 0.316 µM) was 6.35% and 7.02%. For the same compound, the viability, T/C (compound 1 µM) was 6.24% and 5.61%, the viability, T/C (compound 3.16 µM) was 4.99% and 3.42% and the viability, T/C (compound 10 µM) was 6.18% and 4.64%. The IC50 (curve of compound) was less than 31.6 nM.

In the case of `CN1CCN(c2cc(C(=O)Nc3cc4cc(-c5cnn(C)c5)ccc4cn3)ccn2)CC1`, the viability, T/C (compound 0.0316 µM) is reported as 95.6% [middle of 12 runs], the viability, T/C (compound 0.316 µM) is reported as 28.3% [middle of 12 runs] and the viability, T/C (compound 1 µM) is reported as 0.33% [middle of 10 runs]. The viability, T/C (compound 3.16 µM) was 0.29% [middle of 9 runs], the viability, T/C (compound 10 µM) was 0.22% [middle of 9 runs] and the IC50 (compound alone, run of 09/18/2023) was 199 nM [middle of 12 runs].

Work on `CC1(C)CCC(CN2CCN(c3ccc(C(=O)NS(=O)(=O)c4ccc(NCC5CCOCC5)c([N+](=O)[O-])c4)c(Oc4cnc5[nH]ccc5c4)c3)CC2)=C(c2ccc(Cl)cc2)C1` + CN1CCN(c2cc(C(=O)Nc3cc4cc(-c5cnn(C)c5)ccc4cn3)ccn2)CC1 yielded an IC50 (curve of first compound, second compound 0.0316 µM) of 4750 nM, an IC50 (curve of first compound, second compound 0.1 µM) of 5030 nM and an IC50 (curve of first compound, second compound 0.316 µM) of less than 31.6 nM. The IC50 (curve of first compound, second compound 1 µM) was less than 31.6 nM, the IC50 (curve of first compound, second compound 3.16 µM) was less than 31.6 nM and the IC50 (curve of first compound, second compound 10 µM) was less than 31.6 nM. It also gave a viability, T/C (second compound 0.0316 µM, first compound 0.0316 µM) of 99.5%, a viability, T/C (second compound 0.0316 µM, first compound 0.1 µM) of 88.1% and a viability, T/C (second compound 0.0316 µM, first compound 0.316 µM) of 86%. The viability, T/C (second compound 0.0316 µM, first compound 1 µM) was 108%, the viability, T/C (second compound 0.0316 µM, first compound 3.16 µM) was 74.1% and the viability, T/C (second compound 0.0316 µM, first compound 10 µM) was 6.08%. It also gave a viability, T/C (second compound 0.1 µM, first compound 0.0316 µM) of 84.1%, a viability, T/C (second compound 0.1 µM, first compound 0.1 µM) of 81.3% and a viability, T/C (second compound 0.1 µM, first compound 0.316 µM) of 88.3%. For the same compound, the viability, T/C (second compound 0.1 µM, first compound 1 µM) was 87.8%, the viability, T/C (second compound 0.1 µM, first compound 3.16 µM) was 83.1% and the viability, T/C (second compound 0.1 µM, first compound 10 µM) was 1.06%. For the same compound, the viability, T/C (second compound 0.316 µM, first compound 0.0316 µM) was 26.2%, the viability, T/C (second compound 0.316 µM, first compound 0.1 µM) was 26.1% and the viability, T/C (second compound 0.316 µM, first compound 0.316 µM) was 26.7%. It also gave a viability, T/C (second compound 0.316 µM, first compound 1 µM) of 28.9%, a viability, T/C (second compound 0.316 µM, first compound 3.16 µM) of 24.3% and a viability, T/C (second compound 0.316 µM, first compound 10 µM) of 1.02%. It also gave a viability, T/C (second compound 1 µM, first compound 0.0316 µM) of 0.19%, a viability, T/C (second compound 1 µM, first compound 0.1 µM) of 1.14% and a viability, T/C (second compound 1 µM, first compound 0.316 µM) of 0.4%. It also gave a viability, T/C (second compound 1 µM, first compound 1 µM) of 0.16%, a viability, T/C (second compound 1 µM, first compound 3.16 µM) of 0.08% and a viability, T/C (second compound 1 µM, first compound 10 µM) of 0.07%. The viability, T/C (second compound 3.16 µM, first compound 0.0316 µM) was 0.86%, the viability, T/C (second compound 3.16 µM, first compound 0.1 µM) was 0.92% and the viability, T/C (second compound 3.16 µM, first compound 0.316 µM) was 2.05%. The viability, T/C (second compound 3.16 µM, first compound 1 µM) was 0.09%, the viability, T/C (second compound 3.16 µM, first compound 3.16 µM) was 0.64% and the viability, T/C (second compound 3.16 µM, first compound 10 µM) was 0.09%. It also gave a viability, T/C (second compound 10 µM, first compound 0.0316 µM) of 0.1%, a viability, T/C (second compound 10 µM, first compound 0.1 µM) of 0.14% and a viability, T/C (second compound 10 µM, first compound 0.316 µM) of 0.15%. For the same compound, the viability, T/C (second compound 10 µM, first compound 1 µM) was 0.61%, the viability, T/C (second compound 10 µM, first compound 3.16 µM) was 3.58% and the viability, T/C (second compound 10 µM, first compound 10 µM) was 0.16%.
